BindingDB's records for doi:10.1016/s0960-894x(01)00005-1 (Graduate School of Bioscience and Biotechnology, 2001)

Columns and labels:
[1] = Inhibitory activity against peptide binding to the RRE RNA was determined
[2] = Dissociation constant for TAR RNA

Kd [2] [nM] | SMILES | IC50 [1] [nM]
– | N=C(N)NCCCC(N)C(=O)NCC1OC(OC2C(N)CC(N)C(O)C2O)C(N)C(O)C1O [2-Amino-5-guanidino-pentanoic acid [(4R,5S,6S)-5-amino-6-((2R,3R,4R)-4,6-diamino-2,3-dihydroxy-cyclohexyloxy)-3,4-dihydroxy-tetrahydro-pyran-2-ylmethyl]-amide] | 460
30 | N=C(N)NCCCC(NC(=O)c1ccc2ccc3cccc4ccc1c2c34)C(=O)NCC1OC(OC2C(N)CC(N)C(O)C2O)C(N)C(O)C1O (stereo not drawn) [Neamine derivative] | –
290 | NC1CC(N)C(OC2OC(CNC(=O)c3ccc4ccc5cccc6ccc3c4c56)C(O)C(O)C2N)C(O)C1O [Pyrene-1-carboxylic acid [(4R,5S,6S)-5-amino-6-((2R,3R,4R)-4,6-diamino-2,3-dihydroxy-cyclohexyloxy)-3,4-dihydroxy-tetrahydro-pyran-2-ylmethyl]-amide] | –
